Tests used:
Type in all cases: in vivo
Alopecurus myosuroidis = experiment: Greenhouse trial, post-emergence herbicidal action, visual scoring; conditions: 672 h, approx. 4 weeks after application
Procedure: (§1) The seeds of typical harmful plants and of typical cereal plants were sown, allowed to emerge and grown under greenhouse conditions. Treatment with the compositions according to the invention was carried out after emergence of the harmful plants generally at the 2- to 4-leaf stage at various dosages using a water application rate of 300 l/ha (converted).
(§2) After the treatment (approx. 4 weeks after application), the herbidical activity of the active compounds or active compound mixtures was scored visually by comparing the treated plots with untreated control plots. Damage and development of all above-ground parts of the plants was recorded. Scoring was done on a percentage scale (100% activity=all plants dead; 50% activity=50% of the plants and green plant parts dead; 0% activity=no discernible activity=like control plot).
(§3) The results are listed in the tables below, where the activity measured for the independent use of the active compounds A) and B) is stated in brackets and g of AS/ha means gram of active substance per hectare.

Lolium multiflorum = experiment: as above; conditions: 672 h, approx. 4 weeks after application
Procedure: as §1, §2, §3

Wheat = experiment: Greenhouse trial, post-emergence crop damage, visual scoring; conditions: approx. 4 weeks after application
Procedure: as §1, §2, §3

Fc1ccc([C@]2(Cn3cncn3)O[C@H]2c2ccccc2Cl)cc1 (racemic) [epoxiconazole]
0%: inhibition at 125 g/ha (Alopecurus myosuroidis; 125 g of AS/ha) | inhibition at 250 g/ha (Alopecurus myosuroidis; 250 g of AS/ha) | inhibition at 125 g/ha (Lolium multiflorum; 125 g of AS/ha) | inhibition at 250 g/ha (Lolium multiflorum; 250 g of AS/ha) | Wheat % damage (Wheat; 125 g of AS/ha) | Wheat % damage (Wheat; 250 g of AS/ha)
